Test results reported in ChEMBL document CHEMBL6182944, “Substrate Specificity of the Organic Cation Transporters MATE1 and MATE2K and Functional Overlap with OCT1 and OCT2” (J Med Chem, 2025).

Key:
MATE1 = molecular target: T1, MATE1 (Homo sapiens, UniProt Q96FL8); assay: in vitro
T1 sequence (Q96FL8 whole entry): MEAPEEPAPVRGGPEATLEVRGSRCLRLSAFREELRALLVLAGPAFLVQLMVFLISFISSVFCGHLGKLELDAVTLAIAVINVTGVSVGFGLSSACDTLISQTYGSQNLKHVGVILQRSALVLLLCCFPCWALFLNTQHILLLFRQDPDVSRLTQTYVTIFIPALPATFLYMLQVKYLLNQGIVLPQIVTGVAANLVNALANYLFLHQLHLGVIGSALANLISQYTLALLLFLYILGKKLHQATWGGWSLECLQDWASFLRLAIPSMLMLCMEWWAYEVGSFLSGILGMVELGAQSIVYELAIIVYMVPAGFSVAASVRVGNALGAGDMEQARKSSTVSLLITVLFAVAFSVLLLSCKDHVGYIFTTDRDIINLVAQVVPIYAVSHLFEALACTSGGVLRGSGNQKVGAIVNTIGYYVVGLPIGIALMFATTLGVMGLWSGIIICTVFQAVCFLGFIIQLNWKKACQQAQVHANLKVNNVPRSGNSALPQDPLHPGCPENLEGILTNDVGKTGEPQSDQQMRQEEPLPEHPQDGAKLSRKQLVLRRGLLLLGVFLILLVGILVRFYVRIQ

MATE2-K = molecular target: T2, MATE2-K (Homo sapiens, UniProt Q86VL8); assay: in vitro
T2 sequence (Q86VL8 whole entry): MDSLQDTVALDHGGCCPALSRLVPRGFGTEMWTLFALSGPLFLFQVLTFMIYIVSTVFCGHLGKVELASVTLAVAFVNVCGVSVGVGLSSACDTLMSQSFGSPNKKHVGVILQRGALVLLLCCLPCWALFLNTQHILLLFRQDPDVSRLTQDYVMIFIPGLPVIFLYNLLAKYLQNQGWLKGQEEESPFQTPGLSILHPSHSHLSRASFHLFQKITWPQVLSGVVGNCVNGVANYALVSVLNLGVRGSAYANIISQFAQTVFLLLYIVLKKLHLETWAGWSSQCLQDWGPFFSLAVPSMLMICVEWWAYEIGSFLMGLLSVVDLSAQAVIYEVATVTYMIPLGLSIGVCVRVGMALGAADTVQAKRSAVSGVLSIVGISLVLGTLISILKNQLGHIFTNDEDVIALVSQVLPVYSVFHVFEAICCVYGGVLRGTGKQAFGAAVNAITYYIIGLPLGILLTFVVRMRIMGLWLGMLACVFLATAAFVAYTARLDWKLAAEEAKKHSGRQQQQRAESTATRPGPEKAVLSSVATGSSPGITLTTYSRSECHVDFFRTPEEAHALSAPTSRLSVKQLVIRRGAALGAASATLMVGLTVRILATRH

[1] = HEK293 cells expressing MATE2-K

SMILES | uptake ratio at 1 min, 2.5 µM (MATE1; HEK293 cells expressing MATE1) | uptake ratio at 1 min, 2.5 µM (MATE2-K; [1]) | uptake ratio at 1 min, 2.5 µM (MATE1; hek293) | uptake ratio at 1 min, 2.5 µM (MATE2-K; hek293)
COc1ccc(CCN)cc1 | < 2 | < 2 | – | –
COc1cc(CCN)ccc1O | > 2 | < 2 | – | –
OC(c1ccccc1)(c1ccccc1)C12CC[N+](CCOCc3ccccc3)(CC1)CC2 | > 2 | < 2 | – | –
NCCCCCN | < 2 | < 2 | – | –
O=C(O[C@H]1C[N+]2(CCCOc3ccccc3)CCC1CC2)C(O)(c1cccs1)c1cccs1 | > 2 | < 2 | – | –
COc1cc2c(cc1OC)-c1cc3ccc4c(c3c[n+]1CC2)OCO4 | > 2 | > 2 | – | –
C[C@@H]1O[C@@]2(CS1)CN1CCC2CC1 | < 2 | < 2 | – | –
COC(=O)[C@@H]1[C@H]2CC[C@@H](C[C@@H]1O)N2C | < 2 | < 2 | – | –
CNS(=O)(=O)CCc1ccc2[nH]cc(C3CCN(C)CC3)c2c1 | > 2 | > 2 | – | –
CC[C@@H](C(N)=O)N1CCCC1=O | < 2 | < 2 | – | –
CNC(C)Cc1ccc(OC)cc1 (stereo not given) | < 2 | < 2 | – | –
NCCc1cccc(O)c1 | > 2 | < 2 | – | –
COc1ccc(CCN)cc1O | > 2 | < 2 | – | –
CN1CCC[C@@H]1Cc1c[nH]c2ccc(CCS(=O)(=O)c3ccccc3)cc12 | < 2 | < 2 | – | –
C[N+]1(CCC(C(N)=O)(c2ccccc2)c2ccccc2)CCCCC1 | > 2 | < 2 | – | –
COc1ccc2[nH]c3c(c2c1)CCNC3 | < 2 | < 2 | – | –
CCC(Cc1ccc2c(c1)OCO2)NC (stereo not given) | < 2 | < 2 | – | –

SMILES | uptake ratio at 1 min, 2.5 µM (MATE1; HEK293 cells expressing MATE1) | uptake ratio at 1 min, 2.5 µM (MATE2-K; [1]) | uptake ratio at 1 min, 2.5 µM (MATE1; hek293) | uptake ratio at 1 min, 2.5 µM (MATE2-K; hek293)
CNCCc1c[nH]c2ccc(O)cc12 | > 2 | > 2 | – | –
C1CCN2C[C@H]3C[C@H](CN4CCCC[C@@H]34)[C@H]2C1 | > 2 | > 2 | – | –
N=C(N)NCCC[C@H](NC(=O)c1ccc2ccccc2c1O)C(=O)N1CCC[C@H]1C(N)=O | > 2 | < 2 | – | –
CN(C)C(=N)NCCC[C@H](N)C(=O)O | < 2 | < 2 | – | –
CNCCc1ccccc1 | < 2 | < 2 | – | –
CNCCc1ccc(O)cc1 | > 2 | < 2 | – | –
Cc1cc(O)cc(C)c1OCC(C)N (stereo not given) | < 2 | < 2 | – | –
CNCc1ccc(CSCCN/C(=C/[N+](=O)[O-])NC)o1 | > 2 | > 2 | – | –
Cc1ncc(C[n+]2cccc(CCO)c2C)c(N)n1 | > 2 | > 2 | – | –
COc1ccc2[nH]cc(C[C@H](N)C(=O)O)c2c1 | < 2 | < 2 | – | –
CNCC(O)c1ccc(O)cc1 (stereo not given) | > 2 | < 2 | – | –
C[N+]12CCC(CC1)C(OC(=O)C(O)(c1ccccc1)c1ccccc1)C2 (stereo not given) | > 2 | < 2 | – | –
C[C@H](NCCc1ccc(O)cc1)[C@H](O)c1ccc(O)cc1 | – | – | > 2 | > 2
C[C@@H]1Cc2c(Cl)cc(C(=O)N[C@@H](Cc3ccccc3)C(=O)O)c(O)c2C(=O)O1 [3R14S-OCHRATOXIN A] | > 2 | < 2 | – | –
N=C(N)NC(=N)Nc1ccc(Cl)cc1 [4-CHLOROPHENYLBIGUANIDE] | > 2 | > 2 | – | –
NC(N)=Nc1nc(CSCCC(N)=NS(N)(=O)=O)cs1 [FAMOTIDINE] | – | – | – | > 2
